{"source": "ChEMBL document CHEMBL1147203", "about": "“Phosph(on)ate as a zinc-binding group in metalloenzyme inhibitors: X-ray crystal structure of the antiviral drug foscarnet complexed to human carbonic anhydrase I” (Bioorg Med Chem Lett, 2007)", "key": {"[1]": {"molecular_target": "Carbonic anhydrase 5B, mitochondrial (Homo sapiens, UniProt Q9Y2D0)", "sequence (Q9Y2D0 whole entry)": "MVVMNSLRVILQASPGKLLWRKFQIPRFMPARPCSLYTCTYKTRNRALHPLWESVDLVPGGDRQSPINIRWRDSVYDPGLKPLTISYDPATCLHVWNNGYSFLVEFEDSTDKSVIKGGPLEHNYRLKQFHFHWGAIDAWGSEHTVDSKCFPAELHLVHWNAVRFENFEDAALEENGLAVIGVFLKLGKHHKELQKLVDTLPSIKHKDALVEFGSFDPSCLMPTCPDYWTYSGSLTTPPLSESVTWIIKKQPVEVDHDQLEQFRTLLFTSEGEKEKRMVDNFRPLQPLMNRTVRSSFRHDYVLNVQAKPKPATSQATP", "assay": "Inhibition of human recombinant CA5B by CO2 hydration assay"}, "Carbonic anhydrase 6": {"molecular_target": "Carbonic anhydrase 6 (Homo sapiens, UniProt P23280)", "sequence (P23280 whole entry)": "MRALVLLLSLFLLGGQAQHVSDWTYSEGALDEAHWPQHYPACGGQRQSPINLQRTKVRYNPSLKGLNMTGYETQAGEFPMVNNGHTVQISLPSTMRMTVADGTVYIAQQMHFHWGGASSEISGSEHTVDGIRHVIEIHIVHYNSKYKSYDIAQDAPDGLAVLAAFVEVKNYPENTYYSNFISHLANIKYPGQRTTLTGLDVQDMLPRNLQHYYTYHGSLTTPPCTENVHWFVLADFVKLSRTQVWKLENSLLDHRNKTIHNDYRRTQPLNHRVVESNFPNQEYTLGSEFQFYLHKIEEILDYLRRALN", "assay": "Inhibition of human recombinant CA6 by CO2 hydration assay"}, "Carbonic anhydrase 7": {"molecular_target": "Carbonic anhydrase 7 (Homo sapiens, UniProt P43166)", "sequence (P43166 whole entry)": "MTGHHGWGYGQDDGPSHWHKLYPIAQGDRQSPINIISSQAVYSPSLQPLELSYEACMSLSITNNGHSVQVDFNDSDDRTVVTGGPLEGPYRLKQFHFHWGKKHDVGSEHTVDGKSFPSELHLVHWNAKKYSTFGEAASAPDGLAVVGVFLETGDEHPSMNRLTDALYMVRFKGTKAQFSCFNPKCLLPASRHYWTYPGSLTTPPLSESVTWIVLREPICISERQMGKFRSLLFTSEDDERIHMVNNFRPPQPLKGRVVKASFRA", "assay": "Inhibition of human recombinant CA7 by CO2 hydration assay"}, "Carbonic anhydrase 12": {"molecular_target": "Carbonic anhydrase 12 (Homo sapiens, UniProt O43570)", "sequence (O43570 whole entry)": "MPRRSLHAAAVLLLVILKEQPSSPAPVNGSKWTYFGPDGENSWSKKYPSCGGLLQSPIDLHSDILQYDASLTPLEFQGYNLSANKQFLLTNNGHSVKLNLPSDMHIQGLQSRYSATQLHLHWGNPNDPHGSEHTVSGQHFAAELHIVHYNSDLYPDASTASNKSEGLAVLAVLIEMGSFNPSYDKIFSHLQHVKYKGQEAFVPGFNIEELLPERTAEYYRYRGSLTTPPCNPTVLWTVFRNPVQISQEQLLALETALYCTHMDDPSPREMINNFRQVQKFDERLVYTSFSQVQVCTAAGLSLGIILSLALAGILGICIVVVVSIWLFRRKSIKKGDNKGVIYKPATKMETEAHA", "assay": "Inhibition of human recombinant CA12 by CO2 hydration assay"}, "Carbonic anhydrase 13": {"molecular_target": "Carbonic anhydrase 13 (Mus musculus, UniProt Q9D6N1)", "sequence (Q9D6N1 whole entry)": "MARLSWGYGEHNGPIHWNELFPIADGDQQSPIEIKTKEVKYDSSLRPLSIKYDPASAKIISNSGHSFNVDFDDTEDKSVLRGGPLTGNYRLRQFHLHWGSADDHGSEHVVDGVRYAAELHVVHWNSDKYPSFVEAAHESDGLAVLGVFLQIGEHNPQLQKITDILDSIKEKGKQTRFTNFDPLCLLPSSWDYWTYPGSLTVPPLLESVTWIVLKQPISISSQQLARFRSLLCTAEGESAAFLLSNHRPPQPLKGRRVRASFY", "assay": "Inhibition of mouse recombinant CA13 by CO2 hydration assay"}, "Carbonic anhydrase 14": {"molecular_target": "Carbonic anhydrase 14 (Homo sapiens, UniProt Q9ULX7)", "sequence (Q9ULX7 whole entry)": "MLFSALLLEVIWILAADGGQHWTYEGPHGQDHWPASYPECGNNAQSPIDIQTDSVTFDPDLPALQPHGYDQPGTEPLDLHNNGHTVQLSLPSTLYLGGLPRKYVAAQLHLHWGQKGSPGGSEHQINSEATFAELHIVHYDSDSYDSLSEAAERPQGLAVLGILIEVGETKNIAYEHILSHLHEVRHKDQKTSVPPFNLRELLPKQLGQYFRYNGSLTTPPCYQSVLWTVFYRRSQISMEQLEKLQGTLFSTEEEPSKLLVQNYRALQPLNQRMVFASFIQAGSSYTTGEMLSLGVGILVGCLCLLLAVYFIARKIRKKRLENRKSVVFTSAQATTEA", "assay": "Inhibition of human recombinant CA14 by CO2 hydration assay"}}}
{"smiles": "O=C(O)P(=O)(O)O", "note": "[FOSCARNET SODIUM]", "values": [{"measurement": "Ki", "setting": "[1]", "value": 11.8, "unit": "mM"}, {"measurement": "Ki", "setting": "Carbonic anhydrase 6", "value": 1.81, "unit": "mM"}, {"measurement": "Ki", "setting": "Carbonic anhydrase 7", "value": 0.56, "unit": "mM"}, {"measurement": "Ki", "setting": "Carbonic anhydrase 12", "value": 1.29, "unit": "mM"}, {"measurement": "Ki", "setting": "Carbonic anhydrase 13", "value": 0.87, "unit": "mM"}, {"measurement": "Ki", "setting": "Carbonic anhydrase 14", "value": 3.6, "unit": "mM"}]}
